Assay results published in PMC10648349, “Aromatic Diboronic Acids as Effective KPC/AmpC Inhibitors” (Molecules, 2023).
Values after ≈ are worked out from the molar mass of the structure shown.

Experiments:
[1] = system: C. guilliermondii IBA 155; assay: antifungal activity (disc-diffusion, MIC, MFC); assay type: cell-based, Candida guilliermondii; conditions: Meyerozyma guilliermondii, IBA155; for zone of inhibition at 0.4 mg/disc: 0.4 mg per disc, 9 mm disc (fluconazole 0.025 mg, 6 mm disc), - no zone, read-out: Diameter of inhibition zone; for MIC: fluconazole by Etest
Summary of the method: (§1)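 Diboronic acids (DMSO solutions) at 0.4 mg per disc were used for diffusion testing. Dilution endpoints were MIC, MBC and MFC, per CLSI and EUCAST recommendations.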

B. subtilis ATCC 6633 = assay: direct antimicrobial activity (disc-diffusion); assay type: cell-based; conditions: Bacillus subtilis, ATCC6633; 0.4 mg per disc, 9 mm disc (linezolid 0.03 mg, 6 mm disc); - no zone; read-out: Diameter of inhibition zone
Summary of the method: as §1

[2] = system: K. pneumoniae ATCC BAA 1705 KPC-2-positive; assay: combination disc test CDT-KPC; assay type: cell-based; conditions: Klebsiella pneumoniae, BAA1705, read-out: Diameter of inhibition zone, MEM-10 disc with agent; for zone of inhibition at 300 µg/disc: agent 0.3 mg per disc
[3] = MTT-based viability assay; assay type: cell-based; conditions: human, MRC-5 human fibroblasts, 72 h, read-out: Viability of MRC-5 cells (% of viable cells ± SD)
Summary of the method: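 MRC-5 human fibroblasts grown in MEME with 10% FBS at 37 °C, 5% CO2, tested by MTT with absorbance read at 570 nm. Viability given as percent of untreated control cells, in triplicate.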

[4] = system: S. epidermidis ATCC 12228; assay: direct antimicrobial activity (disc-diffusion, MIC, MBC); assay type: cell-based; conditions: Staphylococcus epidermidis, ATCC12228; for zone of inhibition at 0.4 mg/disc: 0.4 mg per disc, 9 mm disc (linezolid 0.03 mg, 6 mm disc), - no zone, read-out: Diameter of inhibition zone
Summary of the method: as §1

[5] = system: S. aureus ATCC 43300 MRSA; assay: as above; assay type: cell-based; conditions: Staphylococcus aureus; for zone of inhibition at 0.4 mg/disc: 0.4 mg per disc, 9 mm disc (linezolid 0.03 mg, 6 mm disc), - no zone, read-out: Diameter of inhibition zone
Summary of the method: as §1

E. faecium ATCC 6057 = assay: as above; assay type: cell-based; conditions: Enterococcus faecium, ATCC6057; for zone of inhibition at 0.4 mg/disc: 0.4 mg per disc, 9 mm disc (linezolid 0.03 mg, 6 mm disc), - no zone, read-out: Diameter of inhibition zone
Summary of the method: as §1

E. faecalis ATCC 29212 = assay: as above; assay type: cell-based; conditions: Enterococcus faecalis, ATCC29212; for zone of inhibition at 0.4 mg/disc: 0.4 mg per disc, 9 mm disc (linezolid 0.03 mg, 6 mm disc), - no zone, read-out: Diameter of inhibition zone
Summary of the method: as §1

S. aureus ATCC 6538P = assay: as above; assay type: cell-based; conditions: Staphylococcus aureus, ATCC6538P; for zone of inhibition at 0.4 mg/disc: 0.4 mg per disc, 9 mm disc (linezolid 0.03 mg, 6 mm disc), - no zone, read-out: Diameter of inhibition zone
Summary of the method: as §1

C. tropicalis IBA 171 = assay: antifungal activity (disc-diffusion, MIC, MFC); assay type: cell-based; conditions: Candida tropicalis, IBA171; fluconazole by Etest
Summary of the method: as §1

C. tropicalis ATCC 750 = assay: antifungal activity (disc-diffusion, MIC, MFC); assay type: cell-based; conditions: Candida tropicalis, ATCC750; fluconazole by Etest
Summary of the method: as §1

C. albicans ATCC 90028 = assay: antifungal activity (disc-diffusion, MIC, MFC); assay type: cell-based; conditions: Candida albicans, ATCC90028; fluconazole by Etest
Summary of the method: as §1

S. cerevisiae ATCC 9763 = assay: antifungal activity (disc-diffusion, MIC, MFC); assay type: cell-based; conditions: Saccharomyces cerevisiae, ATCC9763; for MIC: fluconazole by Etest
Summary of the method: as §1

[6] = system: P. aeruginosa MUW 700 cAmpC-positive; assay: combination disc test CDT-AmpC; assay type: cell-based; conditions: Pseudomonas aeruginosa, read-out: Diameter of inhibition zone, CAZ-30 disc with agent; for zone of inhibition at 100 µg/disc: agent 0.1 mg per disc
[7] = system: C. parapsilosis ATCC 22019; assay: antifungal activity (disc-diffusion, MIC, MFC); assay type: cell-based, Candida parapsilosis; conditions: Lodderomyces parapsilosis, ATCC22019; for MIC: fluconazole by Etest
Summary of the method: as §1

C. krusei ATCC 6258 = assay: antifungal activity (disc-diffusion, MIC, MFC); assay type: cell-based, Candida krusei; conditions: Pichia kudriavzevii, ATCC6258; for MIC: fluconazole by Etest
Summary of the method: as §1

[8] = system: E. coli 77 CMY-2-positive; assay: checkerboard microdilution, antibiotic plus tested agent; assay type: cell-based, Escherichia coli
Summary of the method: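 β-lactam 1–64 mg/L × agent/PBA 4–16 mg/L checkerboard; meropenem vs carbapenemase producers, ceftazidime vs AmpC producer; imipenem, ertapenem added for selected agents. Readout: combination MICs, FICI (average and lowest); off-scale MICs taken as next doubling.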

[9] = system: E. coli 77 CMY-2-positive; assay: combination disc test CDT-AmpC; assay type: cell-based; conditions: Escherichia coli, read-out: Diameter of inhibition zone, CAZ-30 disc with agent; for zone of inhibition at 100 µg/disc: agent 0.1 mg per disc
[10] = 0.4 mg per disc, 9 mm disc (fluconazole 0.025 mg, 6 mm disc), - no zone, read-out: Diameter of inhibition zone

MIC [1] [µg/mL] | MIC [4] [µg/mL] | MIC [5] [µg/mL] | MIC (E. faecium ATCC 6057) [µg/mL] | MIC (E. faecalis ATCC 29212) [µg/mL] | MIC (S. aureus ATCC 6538P) [µg/mL] | MIC (C. tropicalis IBA 171) [µg/mL] | MIC (C. tropicalis ATCC 750) [µg/mL] | MIC (C. albicans ATCC 90028) [µg/mL] | MIC (S. cerevisiae ATCC 9763) [µg/mL] | MIC [7] [µg/mL] | MIC (C. krusei ATCC 6258) [µg/mL] | Structure (SMILES) | zone of inhibition at 0.4 mg/disc (B. subtilis ATCC 6633) [mm] | viability at 72 h, 12.5 mg/L [3] [%] | viability at 72 h, 25 mg/L [3] [%] | viability at 72 h, 50 mg/L [3] [%] | zone of inhibition at 0.4 mg/disc [4] [mm] | zone of inhibition at 0.4 mg/disc [5] [mm] | zone of inhibition at 0.4 mg/disc (E. faecium ATCC 6057) [mm] | zone of inhibition at 0.4 mg/disc (S. aureus ATCC 6538P) [mm] | other results
> 400 | 25 (≈ 124 µM) | 25 (≈ 124 µM) | 100 (≈ 496 µM) | 200 (≈ 991 µM) | 12.5 (≈ 62 µM) | > 400 | > 400 | > 400 | 400 (≈ 1980 µM) | > 400 | > 400 | OB(O)c1cc(F)c(B(O)O)cc1F [1e] | 28 | 107 ± 3.3 | 105 ± 10 | 117 ± 4.6 | 21 | 26 | 14 | 20 | zone of inhibition at 0.4 mg/disc [1]: 16 mm; zone of inhibition at 100 µg/disc ([2]; agent 0.1 mg per disc): 11 mm; zone of inhibition at 0.4 mg/disc (E. faecalis ATCC 29212): 15 mm; zone of inhibition at 0.4 mg/disc (S. cerevisiae ATCC 9763; [10]): 13 mm; zone of inhibition at 100 µg/disc [6]: 18 mm; zone of inhibition at 0.4 mg/disc [7, 10]: 15 mm; zone of inhibition at 0.4 mg/disc (C. krusei ATCC 6258; [10]): 16 mm; Average FICI with ceftazidime [8]: 0.17; The lowest FICI with ceftazidime [8]: 0.14; zone of inhibition at 100 µg/disc [9]: 20 mm
> 400 | 50 (≈ 272 µM) | 400 (≈ 2180 µM) | 400 (≈ 2180 µM) | 400 (≈ 2180 µM) | 100 (≈ 544 µM) | > 400 | > 400 | > 400 | > 400 | > 400 | > 400 | OB(O)c1cc(F)cc(B(O)O)c1 [2b] | 17 | 108 ± 1.1 | 87.9 ± 1.7 | 73.8 ± 1.9 | 19 | 15 | 14 | 14 | zone of inhibition at 300 µg/disc [2]: 19 mm; zone of inhibition at 100 µg/disc [6]: 18 mm; Average FICI with ceftazidime [8]: 0.17; The lowest FICI with ceftazidime [8]: 0.10; zone of inhibition at 100 µg/disc [9]: 21 mm

Structure (SMILES) | MIC [1] [µg/mL] | MIC [4] [µg/mL] | MIC [5] [µg/mL] | MIC (E. faecium ATCC 6057) [µg/mL] | MIC (E. faecalis ATCC 29212) [µg/mL] | MIC (S. aureus ATCC 6538P) [µg/mL] | MIC (C. tropicalis IBA 171) [µg/mL] | MIC (C. tropicalis ATCC 750) [µg/mL] | MIC (C. albicans ATCC 90028) [µg/mL] | MIC (S. cerevisiae ATCC 9763) [µg/mL] | MIC [7] [µg/mL] | MIC (C. krusei ATCC 6258) [µg/mL] | zone of inhibition at 0.4 mg/disc (B. subtilis ATCC 6633) [mm] | viability at 72 h, 12.5 mg/L [3] [%] | viability at 72 h, 25 mg/L [3] [%] | viability at 72 h, 50 mg/L [3] [%] | zone of inhibition at 0.4 mg/disc [4] [mm] | zone of inhibition at 0.4 mg/disc [5] [mm] | zone of inhibition at 0.4 mg/disc (E. faecium ATCC 6057) [mm] | zone of inhibition at 0.4 mg/disc (S. aureus ATCC 6538P) [mm] | other results
OB(O)c1cc(C(F)(F)F)cc(B(O)O)c1F [2e] | > 400 | 0.78 (≈ 3.1 µM) | 12.5 (≈ 49.7 µM) | 100 (≈ 397 µM) | 50 (≈ 199 µM) | 6.25 (≈ 24.8 µM) | 400 (≈ 1590 µM) | > 400 | 400 (≈ 1590 µM) | > 400 | 400 (≈ 1590 µM) | > 400 | 20 | 96.6 ± 6.4 | 84.4 ± 4.8 | 63.1 ± 1.4 | 35 | 25 | 18 | 29 | zone of inhibition at 0.4 mg/disc [1]: 14 mm; zone of inhibition at 300 µg/disc [2]: 6 mm; zone of inhibition at 0.4 mg/disc (E. faecalis ATCC 29212): 21 mm; zone of inhibition at 300 µg/disc ([6]; agent 0.3 mg per disc): 16 mm; zone of inhibition at 300 µg/disc ([9]; agent 0.3 mg per disc): 19 mm
